Laboratory results reported in ChEMBL document CHEMBL3526031, “Mechanistic studies on the absorption and disposition of scutellarin in humans: selective OATP2B1-mediated hepatic uptake is a likely key determinant for its unique pharmacokinetic characteristics” (Drug Metab Dispos, 2012).

Assays:
[1] = target: T1, ATP-binding cassette sub-family C member 3 (Homo sapiens, UniProt O15438); test: Drug uptake assessed as human MRP3-mediated drug transport using inside-out membrane vesicles by measuring +ATP/-ATP ratio by LC-MS/MS analysis; type: ADME
T1 sequence (O15438 whole entry): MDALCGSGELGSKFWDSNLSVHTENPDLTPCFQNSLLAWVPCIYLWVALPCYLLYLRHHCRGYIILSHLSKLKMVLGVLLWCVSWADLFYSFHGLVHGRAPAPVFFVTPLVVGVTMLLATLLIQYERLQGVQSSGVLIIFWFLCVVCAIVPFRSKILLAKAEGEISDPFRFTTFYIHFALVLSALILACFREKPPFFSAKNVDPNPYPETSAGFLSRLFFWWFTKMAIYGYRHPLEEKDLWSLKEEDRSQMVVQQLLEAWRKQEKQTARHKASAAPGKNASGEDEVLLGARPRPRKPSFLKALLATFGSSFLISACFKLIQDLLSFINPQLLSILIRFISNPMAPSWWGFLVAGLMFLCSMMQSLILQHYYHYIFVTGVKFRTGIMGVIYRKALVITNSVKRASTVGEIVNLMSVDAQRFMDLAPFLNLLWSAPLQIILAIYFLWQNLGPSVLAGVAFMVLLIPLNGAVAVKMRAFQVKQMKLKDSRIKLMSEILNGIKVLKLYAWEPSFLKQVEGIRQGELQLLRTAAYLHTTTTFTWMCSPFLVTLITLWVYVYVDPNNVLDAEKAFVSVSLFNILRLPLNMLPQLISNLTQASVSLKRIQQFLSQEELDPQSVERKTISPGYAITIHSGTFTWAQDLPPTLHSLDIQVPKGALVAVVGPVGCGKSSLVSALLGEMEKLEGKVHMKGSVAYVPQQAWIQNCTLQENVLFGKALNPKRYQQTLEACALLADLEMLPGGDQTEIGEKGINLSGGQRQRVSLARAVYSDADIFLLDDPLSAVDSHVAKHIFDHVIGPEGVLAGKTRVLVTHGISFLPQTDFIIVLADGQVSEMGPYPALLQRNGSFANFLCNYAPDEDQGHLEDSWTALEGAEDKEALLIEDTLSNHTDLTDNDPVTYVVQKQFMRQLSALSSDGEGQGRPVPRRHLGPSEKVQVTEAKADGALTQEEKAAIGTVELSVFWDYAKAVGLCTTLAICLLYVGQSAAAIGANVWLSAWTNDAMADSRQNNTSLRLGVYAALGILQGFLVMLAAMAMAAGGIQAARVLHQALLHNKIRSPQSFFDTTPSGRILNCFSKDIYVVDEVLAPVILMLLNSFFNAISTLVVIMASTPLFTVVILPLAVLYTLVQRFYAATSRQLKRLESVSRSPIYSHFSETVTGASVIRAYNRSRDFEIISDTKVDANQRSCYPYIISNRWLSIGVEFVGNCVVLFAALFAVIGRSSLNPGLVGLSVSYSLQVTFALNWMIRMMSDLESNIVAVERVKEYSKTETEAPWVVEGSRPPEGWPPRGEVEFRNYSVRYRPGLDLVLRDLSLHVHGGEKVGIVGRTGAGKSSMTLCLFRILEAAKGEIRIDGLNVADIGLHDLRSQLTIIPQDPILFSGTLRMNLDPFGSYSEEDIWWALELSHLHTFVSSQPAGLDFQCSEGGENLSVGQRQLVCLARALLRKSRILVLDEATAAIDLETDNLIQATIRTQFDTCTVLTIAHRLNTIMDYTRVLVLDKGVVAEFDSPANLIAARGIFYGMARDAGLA

[2] = Ratio of Vmax to Km for drug metabolism in rat intestinal microsomes assessed as formation of scutellarein-6,7-diglucuronide after 7 mins by HPLC/UV analysis; type: ADME, Intestine, Microsome
Liver microsome [3] = test: Ratio of Vmax to Km for drug metabolism in rat liver microsomes assessed as formation of scutellarein-6,7-diglucuronide after 7 mins by HPLC/UV analysis; type: ADME
[4] = target: T2, Broad substrate specificity ATP-binding cassette transporter ABCG2 (Homo sapiens, UniProt Q9UNQ0); test: Inhibition of human BCRP-mediated methotrexate transport using inside-out membrane vesicles by LC-MS/MS analysis; type: ADME
T2 sequence (Q9UNQ0 whole entry): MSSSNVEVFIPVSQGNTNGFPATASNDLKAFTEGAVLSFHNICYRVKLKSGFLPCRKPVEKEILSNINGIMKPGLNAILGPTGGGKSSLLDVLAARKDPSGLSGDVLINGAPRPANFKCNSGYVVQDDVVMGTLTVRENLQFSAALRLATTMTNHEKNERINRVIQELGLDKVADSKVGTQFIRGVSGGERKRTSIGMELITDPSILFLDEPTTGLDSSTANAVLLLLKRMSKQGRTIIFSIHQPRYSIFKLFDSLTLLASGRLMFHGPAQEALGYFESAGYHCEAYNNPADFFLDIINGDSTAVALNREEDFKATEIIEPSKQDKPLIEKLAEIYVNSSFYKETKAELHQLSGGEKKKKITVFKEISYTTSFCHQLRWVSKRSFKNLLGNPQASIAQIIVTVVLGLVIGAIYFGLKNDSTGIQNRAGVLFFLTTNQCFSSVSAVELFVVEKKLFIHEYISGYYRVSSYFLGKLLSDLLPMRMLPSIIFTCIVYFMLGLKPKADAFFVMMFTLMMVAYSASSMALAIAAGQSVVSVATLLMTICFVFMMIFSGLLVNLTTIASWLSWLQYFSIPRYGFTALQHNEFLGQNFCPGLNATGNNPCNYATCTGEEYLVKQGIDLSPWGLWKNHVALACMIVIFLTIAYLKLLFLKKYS

[5] = target: T3, ATP-binding cassette sub-family C member 2 (Homo sapiens, UniProt Q92887); test: Inhibition of human MRP2-mediated estradiol-17beta-D-glucuronide formation using inside-out membrane vesicles by LC-MS/MS analysis
T3 sequence (Q92887 whole entry): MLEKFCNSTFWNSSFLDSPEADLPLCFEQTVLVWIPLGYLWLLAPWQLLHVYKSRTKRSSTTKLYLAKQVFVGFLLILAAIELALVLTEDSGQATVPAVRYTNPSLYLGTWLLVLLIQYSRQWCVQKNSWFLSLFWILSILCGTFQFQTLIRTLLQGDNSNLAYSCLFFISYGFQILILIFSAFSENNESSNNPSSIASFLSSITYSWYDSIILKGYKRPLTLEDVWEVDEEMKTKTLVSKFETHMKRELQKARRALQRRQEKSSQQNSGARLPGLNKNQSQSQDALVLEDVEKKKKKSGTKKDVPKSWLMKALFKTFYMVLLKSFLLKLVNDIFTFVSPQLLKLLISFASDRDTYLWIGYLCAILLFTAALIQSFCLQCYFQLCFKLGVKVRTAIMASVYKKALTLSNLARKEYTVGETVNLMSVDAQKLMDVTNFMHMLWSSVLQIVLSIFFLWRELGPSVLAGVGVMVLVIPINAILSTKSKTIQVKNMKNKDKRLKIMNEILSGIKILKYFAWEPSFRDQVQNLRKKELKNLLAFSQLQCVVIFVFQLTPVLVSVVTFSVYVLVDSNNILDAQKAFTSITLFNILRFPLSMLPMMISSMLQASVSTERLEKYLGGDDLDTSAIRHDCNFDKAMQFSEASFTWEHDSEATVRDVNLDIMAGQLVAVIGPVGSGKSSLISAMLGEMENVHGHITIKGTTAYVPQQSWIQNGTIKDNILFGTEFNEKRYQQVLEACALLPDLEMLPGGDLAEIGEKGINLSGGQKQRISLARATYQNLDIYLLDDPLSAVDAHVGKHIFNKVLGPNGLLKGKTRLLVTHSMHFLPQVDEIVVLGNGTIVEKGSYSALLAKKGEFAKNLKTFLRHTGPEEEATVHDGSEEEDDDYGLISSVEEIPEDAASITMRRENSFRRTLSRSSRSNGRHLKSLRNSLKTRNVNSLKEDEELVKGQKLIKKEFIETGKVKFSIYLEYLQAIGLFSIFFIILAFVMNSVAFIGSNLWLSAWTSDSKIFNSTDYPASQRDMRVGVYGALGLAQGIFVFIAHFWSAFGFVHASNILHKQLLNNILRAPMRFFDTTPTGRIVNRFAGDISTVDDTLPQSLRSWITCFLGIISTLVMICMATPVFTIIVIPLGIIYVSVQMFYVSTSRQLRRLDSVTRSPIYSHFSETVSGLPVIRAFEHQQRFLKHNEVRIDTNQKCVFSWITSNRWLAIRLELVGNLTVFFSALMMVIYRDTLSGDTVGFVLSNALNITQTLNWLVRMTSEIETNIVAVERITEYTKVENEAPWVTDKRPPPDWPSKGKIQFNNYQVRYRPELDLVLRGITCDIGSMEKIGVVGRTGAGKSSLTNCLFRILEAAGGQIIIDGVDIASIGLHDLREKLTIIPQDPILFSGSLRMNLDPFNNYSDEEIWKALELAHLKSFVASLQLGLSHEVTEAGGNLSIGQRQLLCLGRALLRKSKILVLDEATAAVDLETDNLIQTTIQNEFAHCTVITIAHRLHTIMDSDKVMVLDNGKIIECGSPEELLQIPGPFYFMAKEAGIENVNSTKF

[6] = Drug metabolism in rat intestinal microsomes assessed as formation of scutellarein-6,7-diglucuronide after 7 mins by HPLC/UV analysis; type: ADME, Intestine, Microsome; conditions: for Km / Vmax: rat, microsomes, 7 min
Liver microsome [7] = test: Drug metabolism in rat liver microsomes assessed as formation of scutellarein-6,7-diglucuronide after 7 mins by HPLC/UV analysis; type: ADME; conditions: for Km / Vmax: rat, microsomes, 7 min
OATP2B1 = target: T4, OATP2B1 (Homo sapiens, UniProt O94956); test: Drug uptake assessed as OATP2B1 (unknown origin)-mediated drug transport expressed in HEK293 cells by LC-MS/MS analysis relative to control; type: ADME, cell-based; conditions: HEK293 cells expressing OATP2B1
T4 sequence (O94956 whole entry): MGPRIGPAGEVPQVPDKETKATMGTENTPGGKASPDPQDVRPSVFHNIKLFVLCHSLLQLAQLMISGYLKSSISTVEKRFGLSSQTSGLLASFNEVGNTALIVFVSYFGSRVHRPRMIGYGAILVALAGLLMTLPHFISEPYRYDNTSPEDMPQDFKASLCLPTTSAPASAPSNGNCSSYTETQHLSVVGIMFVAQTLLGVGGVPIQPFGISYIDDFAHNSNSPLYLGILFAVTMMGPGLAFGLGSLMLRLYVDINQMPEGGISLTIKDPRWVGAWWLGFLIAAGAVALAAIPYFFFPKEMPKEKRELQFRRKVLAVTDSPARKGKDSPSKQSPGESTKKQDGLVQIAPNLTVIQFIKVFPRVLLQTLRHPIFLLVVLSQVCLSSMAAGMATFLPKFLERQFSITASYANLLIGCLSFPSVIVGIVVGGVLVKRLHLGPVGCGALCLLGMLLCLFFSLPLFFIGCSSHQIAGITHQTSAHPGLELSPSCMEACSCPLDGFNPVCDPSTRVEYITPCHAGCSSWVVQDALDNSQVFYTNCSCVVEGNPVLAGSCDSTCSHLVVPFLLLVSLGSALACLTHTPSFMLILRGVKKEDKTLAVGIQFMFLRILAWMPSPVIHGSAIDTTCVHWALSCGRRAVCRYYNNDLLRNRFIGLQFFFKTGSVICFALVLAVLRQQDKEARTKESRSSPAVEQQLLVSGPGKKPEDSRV

[8] = target: T3, ATP-binding cassette sub-family C member 2; test: Drug uptake assessed as human MRP2-mediated drug transport using inside-out membrane vesicles by measuring +ATP/-ATP ratio by LC-MS/MS analysis; type: ADME
[9] = target: Multidrug resistance-associated protein 1 (Homo sapiens, UniProt P33527); test: Inhibition of human MRP1-mediated estradiol-17beta-D-glucuronide formation using inside-out membrane vesicles by LC-MS/MS analysis
[10] = target: T5, UDP-glucuronosyltransferase 1A10 (Homo sapiens, UniProt Q9HAW8); test: Drug metabolism assessed as human recombinant UGT1A10-mediated formation of scutellarein-6,7-diglucuronide after 25 mins by HPLC/UV analysis; type: ADME
T5 sequence (Q9HAW8 whole entry): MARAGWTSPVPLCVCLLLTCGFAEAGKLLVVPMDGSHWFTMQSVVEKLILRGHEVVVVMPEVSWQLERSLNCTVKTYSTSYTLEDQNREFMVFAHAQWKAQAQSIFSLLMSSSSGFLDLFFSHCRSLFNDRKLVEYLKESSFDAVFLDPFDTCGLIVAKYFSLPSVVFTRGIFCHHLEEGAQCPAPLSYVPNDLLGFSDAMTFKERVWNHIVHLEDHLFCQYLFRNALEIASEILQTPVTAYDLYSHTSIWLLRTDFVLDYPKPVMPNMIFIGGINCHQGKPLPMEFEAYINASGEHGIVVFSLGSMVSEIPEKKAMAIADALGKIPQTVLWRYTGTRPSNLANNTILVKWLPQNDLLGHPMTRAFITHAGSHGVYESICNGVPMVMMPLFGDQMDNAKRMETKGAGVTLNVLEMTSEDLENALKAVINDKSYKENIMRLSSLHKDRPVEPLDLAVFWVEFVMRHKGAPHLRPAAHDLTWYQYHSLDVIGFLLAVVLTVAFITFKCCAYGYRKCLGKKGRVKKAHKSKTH

[11] = target: T1, ATP-binding cassette sub-family C member 3; test: Inhibition of human MRP3-mediated estradiol-17beta-D-glucuronide formation using inside-out membrane vesicles by LC-MS/MS analysis
Liver microsome [12] = test: Ratio of Vmax to Km for drug metabolism in human liver microsomes assessed as formation of scutellarein-6,7-diglucuronide after 7 mins by HPLC/UV analysis; type: ADME
[13] = target: ATP-dependent translocase ABCB1 (Homo sapiens, UniProt P08183); test: Inhibition of human MDR1-mediated N-methyl quinine formation using inside-out membrane vesicles by LC-MS/MS analysis; type: ADME
ATP-dependent translocase ABCB1, sequence (P08183 whole entry): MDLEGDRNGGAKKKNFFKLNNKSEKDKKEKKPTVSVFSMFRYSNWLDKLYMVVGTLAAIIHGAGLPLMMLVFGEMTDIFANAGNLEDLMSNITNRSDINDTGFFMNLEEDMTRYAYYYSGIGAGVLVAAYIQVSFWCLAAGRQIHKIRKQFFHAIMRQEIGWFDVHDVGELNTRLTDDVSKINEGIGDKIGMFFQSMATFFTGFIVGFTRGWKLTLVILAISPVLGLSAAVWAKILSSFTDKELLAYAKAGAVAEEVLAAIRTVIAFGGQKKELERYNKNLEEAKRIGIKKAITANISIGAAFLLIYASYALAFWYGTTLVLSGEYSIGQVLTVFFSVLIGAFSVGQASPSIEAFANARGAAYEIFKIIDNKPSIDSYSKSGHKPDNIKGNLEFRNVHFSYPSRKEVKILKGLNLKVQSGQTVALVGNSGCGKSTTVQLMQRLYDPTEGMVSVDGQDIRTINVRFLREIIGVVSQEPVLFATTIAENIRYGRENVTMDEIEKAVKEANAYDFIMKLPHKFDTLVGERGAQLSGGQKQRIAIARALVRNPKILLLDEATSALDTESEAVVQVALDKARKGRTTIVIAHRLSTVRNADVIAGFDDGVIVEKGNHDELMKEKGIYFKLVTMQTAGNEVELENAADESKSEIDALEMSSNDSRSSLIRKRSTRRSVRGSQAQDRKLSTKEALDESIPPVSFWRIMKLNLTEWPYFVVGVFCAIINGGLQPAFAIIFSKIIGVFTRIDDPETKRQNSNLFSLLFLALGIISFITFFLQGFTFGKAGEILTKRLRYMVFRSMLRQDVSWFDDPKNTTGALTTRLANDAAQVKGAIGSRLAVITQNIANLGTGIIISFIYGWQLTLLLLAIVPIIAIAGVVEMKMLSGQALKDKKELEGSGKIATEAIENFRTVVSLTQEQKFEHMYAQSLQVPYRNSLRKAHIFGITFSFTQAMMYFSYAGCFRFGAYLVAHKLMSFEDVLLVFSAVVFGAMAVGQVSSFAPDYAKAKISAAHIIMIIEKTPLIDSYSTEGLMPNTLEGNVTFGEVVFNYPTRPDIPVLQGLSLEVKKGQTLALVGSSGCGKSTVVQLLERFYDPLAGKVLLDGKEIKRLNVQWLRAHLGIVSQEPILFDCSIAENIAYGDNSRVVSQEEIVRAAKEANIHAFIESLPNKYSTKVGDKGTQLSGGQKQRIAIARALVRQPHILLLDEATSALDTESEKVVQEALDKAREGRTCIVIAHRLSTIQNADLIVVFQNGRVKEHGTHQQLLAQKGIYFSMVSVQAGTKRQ

[14] = Drug metabolism in human intestinal microsomes assessed as formation of scutellarein-6,7-diglucuronide after 7 mins by HPLC/UV analysis; type: ADME, Intestine, Microsome; conditions: for Km / Vmax: human, microsomes, 7 min

Structure (SMILES)	Ratio [1]	Vmax/Km [2] [µL/min/mg]	Vmax/Km (Liver microsome [3]) [µL/min/mg]	IC50 [4] [µM]	IC50 [5] [µM]	Ki [6] [µM]	Km [6] [µM]	Vmax [6] [nmol/min/mg]	Ki (Liver microsome [7]) [µM]	Km (Liver microsome [7]) [µM]	Vmax (Liver microsome [7]) [nmol/min/mg]	uptake ratio (OATP2B1)	Ratio [8]	inhibition (INH) [9]	Ki [10] [µM]	inhibition (INH) [11]	Vmax/Km (Liver microsome [12]) [µL/min/mg]	inhibition (INH) [13]	Ki [14] [µM]	Km [14] [µM]	also measured
O=C(O)[C@H]1O[C@@H](Oc2cc3oc(-c4ccc(O)cc4)cc(=O)c3c(O)c2O)[C@H](O)[C@@H](O)[C@@H]1O [SCUTELLARIN]	1.61	18.9	204	10	75	79	349	6.6	302	15.2	3.1	65	3.07	Active	208	Not Active	11.8	Active	59.5	643	Vmax [14]: 11.9 nmol/min/mg
O=C(O)[C@H]1O[C@@H](Oc2c(O)cc3oc(-c4ccc(O)cc4)cc(=O)c3c2O)[C@H](O)[C@@H](O)[C@@H]1O	1.61	30	91.3	20	50	79.2	41.1	1.23	78.3	21.2	1.94	20.4	3.07	Active	242	Active	127	Active	11.8	156	Vmax ([10]; human, recombinant enzyme, 25 min): 0.221 nmol/min/mg; Vmax [14]: 17.1 nmol/min/mg
